US12281122B1, “PI3K inhibitors” (Cogent Biosciences, Inc., priority 2023, dated 2025)
pIC50: −log10 of the molar value.

What was measured:
[1] = test system: T47D (PI3Kα-H1047R) cell line; test: HTRF phospho-AKT(S473) cell assay in T47D cells; format: cell-based, human
Experimental: (§1) Compounds in the present disclosure were tested in a cell based HTRF phospho-AKT(S473) (CisBio/Revvity) assay in human breast cancer cell lines as a measurement of PIK3CA activity through measuring AKT, a downstream effector. The activity of mutant PI3Kα-H1047R and PI3Kα-Wild Type was measured in the T47D (PI3Kα-H1047R) and SKBR3 (PI3Kα-Wild Type) cell lines, respectively. T47D cells were plated at 20,000 cells per well in 50 μL in RPMI medium supplemented with 10% FBS and 0.2 units/mL insulin, in 384 well plates. SKBR3 cells were plated at 25,000 cells per well in 50 μL in McCoy's 5A medium supplemented with 10% FBS, in 384 well plates. Cells were plated using a Combi Multidrop reagent dispenser (ThermoFisher), and placed in 5% CO2, 37° C. incubator overnight to adhere.
(§2) The next day, cells were treated with either compounds or vehicle (DMSO) in a 12-fold dose response curve of 1:3 dilutions, with 5 μM and 10 μM as the top concentrations for the T47D and SKBR3 cell lines, respectively. Compound treatment was facilitated via the D300e digital dispenser (Tecan), with a maximum DMSO concentration of 0.5%. Following compound addition, cell plates were incubated for 2 hours in 5% CO2, 37° C. incubator. The SKBR3 cells were stimulated and treated with 70 ng/ml PDGF-BB ligand (ThermoFisher) for the remaining 15 minutes of the incubation. Following compound incubation, compound and media was aspirated from the cells and 25 μL of supplemented lysis buffer was added per well, and incubated for 45 minutes at room temperature, shaking at 600 rpm. Next, 16 μL of cell lysate was added to a 384 well low volume ProxyPlate (Perkin Elmer/Revvity) mixed with 4 μL of HTRF antibodies (1:1 Eu Cryptate+d2 Cryptate). HTRF supplemented lysis buffer and antibody reagents were used from the phosphor-AKT(S473) HTRF assay kit (CisBio/Revvity), following manufacturers protocol recommendations. Plates were sealed and incubated at 4° C. overnight.
(§3) The following day, plates were centrifuged for 1 minute at 1000 rpm, and read on a PHERAstar plate reader. IC50 values were calculated using Spotfire software.

[2] = test system: SKBR3 (PI3Kα-Wild Type) cell line; test: HTRF phospho-AKT(S473) cell assay in SKBR3 cells; format: cell-based, human
Experimental: as §1, §2, §3

[3] = Homo sapiens; HTRF phospho-AKT(S473), T47D (PI3Kα-H1047R) cells, 2 hours compound incubation
[4] = Homo sapiens, SK-BR-3; HTRF phospho-AKT(S473), SKBR3 (PI3Kα-Wild Type) cells, 2 hours compound incubation, PDGF-BB stimulated
[5] = Homo sapiens; T47D (PI3Kα-H1047R) cells, HTRF phospho-AKT(S473), 2 hours compound incubation
[6] = Homo sapiens, SK-BR-3; SKBR3 (PI3Kα-Wild Type) cells, HTRF phospho-AKT(S473), 2 hours compound incubation, PDGF-BB stimulated

Structure (SMILES)	pIC50 [1, 3]	pIC50 [2, 4]	pIC50 [1, 5]	pIC50 [2, 6]
Cc1cc([C@@H](C)Nc2ccc(Cl)nc2C(=O)NS(C)(=O)=O)c2nc(-c3ccc(-c4ccn(C)n4)c(F)c3)n(C)c(=O)c2c1 [Compound 787, (R)-6-chloro-3-((1-(2-(3-fluoro-4-(1-methyl-1H-pyrazol-3-yl)phenyl)-3,6-dimethyl-4-oxo-3,4-dihydroquinazolin-8-yl)ethyl)amino)-N-(methylsulfonyl) picolinamide]	> 6.60	5.30 to 6.00	–	–
Cc1cc([C@@H](C)Nc2ccc(Cl)nc2C(=O)NS(C)(=O)=O)c2nc(N3CCN(c4ccccc4)CC3)n(C)c(=O)c2c1 [Compound 183, (R)-6-chloro-3-((1-(3,6-dimethyl-4-oxo-2-(4-phenylpiperazin-1-yl)-3,4-dihydroquinazolin-8-yl)ethyl)amino)-N-(methylsulfonyl) picolinamide]	–	–	> 6.60	5.30 to 6.00
Cc1cc([C@@H](C)Nc2ccc(Cl)nc2C(=O)NS(C)(=O)=O)c2nc(-c3ccc4[nH]ncc4c3)n(C)c(=O)c2c1 [Compound 832, (R)-3-((1-(2-(1H-indazol-5-yl)-3,6-dimethyl-4-oxo-3,4-dihydroquinazolin-8-yl)ethyl)amino)-6-chloro-N-(methylsulfonyl) picolinamide]	6.30 to 6.60	5.30 to 6.00	–	–
Cc1cc([C@@H](C)Nc2ccc(Cl)nc2C(=O)NS(C)(=O)=O)c2nc(N3Cc4cnn(C(F)F)c4C3)n(C)c(=O)c2c1 [Compound 172, (R)-6-chloro-3-((1-(2-(1-(difluoromethyl)-4,6-dihydropyrrolo[3,4-c]pyrazol-5(1H)-yl)-3,6-dimethyl-4-oxo-3,4-dihydroquinazolin-8-yl)ethyl)amino)-N-(methylsulfonyl) picolinamide]	–	–	> 6.60	5.30 to 6.00
Cc1cc([C@@H](C)Nc2ccc(Cl)nc2C(=O)NS(C)(=O)=O)c2nc(-c3ccc(Nc4cnn(C)c4)c(F)c3)n(C)c(=O)c2c1 [Compound 806, (R)-6-chloro-3-((1-(2-(3-fluoro-4-((1-methyl-1H-pyrazol-4-yl)amino)phenyl)-3,6-dimethyl-4-oxo-3,4-dihydroquinazolin-8-yl)ethyl)amino)-N-(methylsulfonyl) picolinamide]	> 6.60	5.30 to 6.00	–	–
Cc1cc([C@@H](C)Nc2ccc(Cl)nc2C(=O)NS(C)(=O)=O)c2nc(N3C[C@@H]4[C@H](C3)[C@H]4c3c(F)cnn3C3CC3)n(C)c(=O)c2c1 [Compound 570, 6-chloro-3-(((R)-1-(2-((1R,5S,6R)-6-(1-cyclopropyl-4-fluoro-1H-pyrazol-5-yl)-3-azabicyclo[3.1.0]hexan-3-yl)-3,6-dimethyl-4-oxo-3,4-dihydroquinazolin-8-yl)ethyl)amino)-N-(methylsulfonyl) picolinamide]	> 6.60	≤ 5.30	–	–
C[C@@H](Nc1ccc(Cl)nc1C(=O)NS(C)(=O)=O)c1cc(F)cc2c(=O)n(C)c(N3C[C@@H]4[C@H](C3)[C@H]4c3ccnn3C)nc12 [Compound 374, 6-chloro-3-(((R)-1-(6-fluoro-3-methyl-2-((1R,5S,6R)-6-(1-methyl-1H-pyrazol-5-yl)-3-azabicyclo[3.1.0]hexan-3-yl)-4-oxo-3,4-dihydroquinazolin-8-yl)ethyl)amino)-N-(methylsulfonyl) picolinamide]	–	–	> 6.60	5.30 to 6.00
Cc1cc([C@@H](C)Nc2ccc(Cl)nc2C(=O)NS(C)(=O)=O)c2nc(N3C[C@@H]4[C@H](C3)[C@H]4c3ccn(C4CC4)n3)n(C)c(=O)c2c1 [Compound 475, 6-chloro-3-(((R)-1-(2-((1R,5S,6R)-6-(1-cyclopropyl-1H-pyrazol-3-yl)-3-azabicyclo[3.1.0]hexan-3-yl)-3,6-dimethyl-4-oxo-3,4-dihydroquinazolin-8-yl)ethyl)amino)-N-(methylsulfonyl) picolinamide]	6.30 to 6.60	5.30 to 6.00	–	–

Next, values leading:

pIC50 [1, 3]	pIC50 [2, 4]	pIC50 [1, 5]	pIC50 [2, 6]	Structure (SMILES)
> 6.60	5.30 to 6.00	–	–	Cc1cc([C@@H](C)Nc2ccc(Cl)nc2C(=O)NS(C)(=O)=O)c2nc(N3CC[C@H](Oc4cnc(C)cn4)C3)n(C)c(=O)c2c1 [Compound 631, 6-chloro-3-(((R)-1-(3,6-dimethyl-2-((S)-3-((5-methylpyrazin-2-yl)oxy)pyrrolidin-1-yl)-4-oxo-3,4-dihydroquinazolin-8-yl)ethyl)amino)-N-(methylsulfonyl) picolinamide]
6.30 to 6.60	≤ 5.30	–	–	Cc1cc([C@@H](C)Nc2ccc(Cl)nc2C(=O)NS(C)(=O)=O)c2nc(N3C[C@H]4C[C@@]4(c4cnc(C)nc4)C3)n(C)c(=O)c2c1 (relative stereo) [Compound 751, 6-chloro-3-(((R)-1-(3,6-dimethyl-2-((1R*,5S*)-1-(2-methylpyrimidin-5-yl)-3-azabicyclo[3.1.0]hexan-3-yl)-4-oxo-3,4-dihydroquinazolin-8-yl)ethyl)amino)-N-(methylsulfonyl) picolinamide]
–	–	> 6.60	≤ 5.30	Cc1cc([C@@H](C)Nc2ccc(Cl)nc2C(=O)NS(C)(=O)=O)c2nc(N3C[C@H]4CC(c5ccn(C)n5)C[C@@H]4C3)n(C)c(=O)c2c1 (single isomer, unassigned) [Compound 425, 6-chloro-3-(((R)-1-(3,6-dimethyl-2-((3aS*,6aS*)-5-(1-methyl-1H-pyrazol-3-yl)hexahydrocyclopenta [c]pyrrol-2(1H)-yl)-4-oxo-3,4-dihydroquinazolin-8-yl)ethyl)amino)-N-(methylsulfonyl) picolinamide]
–	–	> 6.60	5.30 to 6.00	Cc1cc([C@@H](C)Nc2ccc(Cl)nc2C(=O)NS(C)(=O)=O)c2nc(N3C[C@@H]4[C@H](C3)[C@H]4c3ccn(C)n3)n(C)c(=O)c2c1 [Compound 295, 6-chloro-3-(((R)-1-(3,6-dimethyl-2-((1R,5S,6R)-6-(1-methyl-1H-pyrazol-3-yl)-3-azabicyclo[3.1.0]hexan-3-yl)-4-oxo-3,4-dihydroquinazolin-8-yl)ethyl)amino)-N-(methylsulfonyl) picolinamide]
–	–	6.30 to 6.60	≤ 5.30	Cc1cc([C@@H](C)Nc2ccc(Cl)nc2C(=O)NS(C)(=O)=O)c2nc(C3CCN(c4nn(C)cc4F)CC3)n(C)c(=O)c2c1 [Compound 429, (R)-6-chloro-3-((1-(2-(1-(4-fluoro-1-methyl-1H-pyrazol-3-yl)piperidin-4-yl)-3,6-dimethyl-4-oxo-3,4-dihydroquinazolin-8-yl)ethyl)amino)-N-(methylsulfonyl) picolinamide]
–	–	> 6.60	5.30 to 6.00	Cc1cc([C@@H](C)Nc2ccc(Cl)nc2C(=O)NS(C)(=O)=O)c2nc(N3CCN(c4ncc(C#N)cc4C)CC3)n(C)c(=O)c2c1 [Compound 184, (R)-6-chloro-3-((1-(2-(4-(5-cyano-3-methylpyridin-2-yl)piperazin-1-yl)-3,6-dimethyl-4-oxo-3,4-dihydroquinazolin-8-yl)ethyl)amino)-N-(methylsulfonyl) picolinamide]
–	–	> 6.60	5.30 to 6.00	Cc1cc([C@@H](C)Nc2ccc(Cl)nc2C(=O)NS(C)(=O)=O)c2nc(N3CCC(n4ncc5ccncc54)CC3)n(C)c(=O)c2c1 [Compound 258]
–	–	> 6.60	5.30 to 6.00	Cc1cc([C@@H](C)Nc2ccc(Cl)nc2C(=O)NS(C)(=O)=O)c2nc(N3C[C@@H]4[C@H](C3)[C@H]4n3nccc3C)n(C)c(=O)c2c1 [Compound 417, 6-chloro-3-(((R)-1-(3,6-dimethyl-2-((1R,5S,6S)-6-(5-methyl-1H-pyrazol-1-yl)-3-azabicyclo[3.1.0]hexan-3-yl)-4-oxo-3,4-dihydroquinazolin-8-yl)ethyl)amino)-N-(methylsulfonyl) picolinamide]
6.30 to 6.60	≤ 5.30	–	–	Cc1cc([C@@H](C)Nc2ccc(Cl)nc2C(=O)NS(C)(=O)=O)c2nc(N3CC[C@H](c4ccc(C)nc4)C3)n(C)c(=O)c2c1 (relative stereo) [Compound 660, 6-chloro-3-(((R)-1-(3,6-dimethyl-2-((R*)-3-(6-methylpyridin-3-yl)pyrrolidin-1-yl)-4-oxo-3,4-dihydroquinazolin-8-yl)ethyl)amino)-N-(methylsulfonyl) picolinamide]
–	–	> 6.60	5.30 to 6.00	Cc1cc([C@@H](C)Nc2ccc(Cl)nc2C(=O)NS(C)(=O)=O)c2nc(N3CCN(c4cc[nH]n4)CC3)n(C)c(=O)c2c1 [Compound 204, (R)-3-((1-(2-(4-(1H-pyrazol-3-yl)piperazin-1-yl)-3,6-dimethyl-4-oxo-3,4-dihydroquinazolin-8-yl)ethyl)amino)-6-chloro-N-(methylsulfonyl) picolinamide]
